Data reported in PMC5884943, “Discovery of Novel Inhibitors of Indoleamine 2,3-Dioxygenase 1 Through Structure-Based Virtual Screening” (Frontiers in Pharmacology, 2018).

Target: T1, human IDO1 protein (Homo sapiens, UniProt P14902)
T1 construct: purchased ChemPartner Lot; No. 20160706
Experiment: Enzymatic IDO1 assay (Absorbance 321 assay)
Format: biochemical
Settings: for Avg_Inh (%) @ 50uM: average inhibition, Table S2; for Background (%): background signal of the compound in the absorbance assay
Experimental: The standard assay mixture contained modified potassium phosphate buffer at pH 6.5, 100 μM L-tryptophan (Sigma, Cat. […] No. […]). […] Then the assay plate was read at OD321 kinetically in Spectramax. […] Fit the data in […]5.0 software to obtain IC50-values using Equation (2): (2) Y=Bottom+Top-Bottom/1+10^(logIC50-X)×HillSlope where Y stands for inhibition percentage and X stands for compound concentration. All determinations were carried out in duplicate.

T1 sequence (P14902 whole entry): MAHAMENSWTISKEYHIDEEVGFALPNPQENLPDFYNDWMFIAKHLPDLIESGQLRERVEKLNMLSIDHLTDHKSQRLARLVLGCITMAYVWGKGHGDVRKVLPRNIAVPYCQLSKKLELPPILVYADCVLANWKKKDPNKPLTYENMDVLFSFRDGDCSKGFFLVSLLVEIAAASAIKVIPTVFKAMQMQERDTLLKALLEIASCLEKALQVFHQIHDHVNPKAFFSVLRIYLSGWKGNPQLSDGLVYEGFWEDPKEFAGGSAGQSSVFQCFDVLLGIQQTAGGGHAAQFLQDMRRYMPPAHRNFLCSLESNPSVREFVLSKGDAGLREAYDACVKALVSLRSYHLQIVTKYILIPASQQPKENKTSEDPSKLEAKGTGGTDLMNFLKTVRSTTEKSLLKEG

SMILES	Avg_Inh (%) @ 50uM	Background (%)
CCc1ccc(OCC(=O)Nc2ccccc2C(N)=O)c(Br)c1 [DCI-074]	21.71%	35.63%
O=C(COc1ccc2ccccc2c1)c1ccc(Br)cc1 [DCI-075]	79.98%	55.42%
Cc1ccccc1C(=O)Oc1ccc2ccc(O)cc2c1 [DCI-076]	43.35%	40.50%
N#CCn1nc(-c2ccc(Cl)cc2)c2c1-c1ccccc1C2 [DCI-077]	51.64%	57.47%
Cc1cc(C)c2c(N)c(C(=O)Nc3ccc(S(N)(=O)=O)cc3)sc2n1 [DCI-078]	-8.99%	62.57%
O=C(O)c1ccc(Cn2nnc3cc4ccccc4cc32)cc1 [DCI-080]	-3.23%	48.38%
O=c1[nH]c(CN2CCOCC2)nc2ccccc12 [DCI-081]	-6.95%	38.30%
CCC(C(=O)Nc1cccc(C(C)O)c1)c1ccccc1 (stereo not drawn) [DCI-082]	-2.26%	35.32%
Cc1ccc([N+](=O)[O-])cc1NC(=O)COc1ccc2ccccc2c1Br [DCI-083]	40.17%	40.73%
COc1ccc2ccccc2c1/C=N/NC(N)=S [DCI-084]	35.60%	64.61%
CC(=O)Nc1ccc(NC(=O)COc2ccc(Br)cc2C)cc1 [DCI-085]	-4.72%	37.26%
O=C(COc1ccc2ccccc2c1)Nc1cccc(Cl)c1 [DCI-086]	77.96%	50.53%
Cc1cc(C)c(S(=O)(=O)N2CCC(C(N)=O)CC2)cc1C [DCI-087]	-2.50%	34.87%
COc1cc(C(=O)Nc2ccc(S(N)(=O)=O)cc2)cc(OC)c1OC [DCI-088]	-0.32%	43.06%
COc1ccc2ccccc2c1CNC(C)c1ccccc1 (stereo not drawn) [DCI-091]	-6.47%	41.00%
COc1ccc2ccccc2c1CNc1ncn[nH]1 [DCI-092]	1.56%	40.57%
O=C(c1ccc(OCCc2ccccc2)cc1)N1CCCC1 [DCI-093]	2.13%	35.52%
Cc1cc(=O)oc2cc(OCC(O)Cn3c(C)nc4ccccc43)ccc12 (stereo not drawn) [DCI-094]	-10.06%	75.33%
O=C(Cc1coc2ccc3ccccc3c12)N1CCCC1 [DCI-095]	-1.55%	43.56%
Cc1ccc(C)c(NS(=O)(=O)c2ccc3ccccc3c2)c1 [DCI-096]	58.68%	49.37%
COc1ccc2nc(C(C)O)[nH]c2c1 (stereo not drawn) [DCI-097]	-2.09%	37.58%
COc1ccc(C2C(C#N)=C(N)Oc3n[nH]c(-c4ccc(Cl)cc4)c32)cc1O (stereo not drawn) [DCI-098]	4.10%	35.87%
Cc1cc2ccccc2n2c(SCC(=O)Nc3ccc(S(N)(=O)=O)cc3)nnc12 [DCI-099]	27.63%	49.90%
O=S(=O)(c1ccc(N=Cc2c(O)ccc3ccccc23)cc1)N1CCCCC1 [DCI-100]	94.68%	57.16%
c1ccc(CNCC2OCCc3ccccc32)cc1 (stereo not drawn) [DCI-101]	-0.96%	35.16%
CCn1c(SCc2nc3ccccc3[nH]2)nc2cc(C(=O)OC)ccc2c1=O [DCI-103]	43.77%	52.04%
O=C(NCCc1cccc(Cl)c1)c1cccc2ccccc12 [DCI-104]	25.72%	41.51%
